Experimental data as given in ChEMBL document CHEMBL2429746, “Cell-based medicinal chemistry optimization of high throughput screening hits for orally active antimalarials. Part 2: hits from SoftFocus kinase and other libraries” (J Med Chem, 2013).
Each block holds one compound with its values, some of them ahead of it.

Tests used:
[1] = tested on: Plasmodium falciparum; experiment: Antimalarial activity against Plasmodium falciparum infected in NOD SCID mouse after 4 days by Peters test; format: functional; settings: 96 h
[2] = tested on: Plasmodium falciparum; experiment: Antimalarial activity against blood stage of Plasmodium falciparum Dd2 assessed as parasite viability after 72 hrs by SYBR green dye-based assay; format: functional, organism-based; settings: Dd2, 72 h
[3] = tested on: Plasmodium falciparum; experiment: Antimalarial activity against blood stage of Plasmodium falciparum 3D7 assessed as parasite viability after 72 hrs by SYBR green dye-based assay; format: functional, organism-based; settings: 3D7, 72 h
[4] = tested on: Plasmodium falciparum; experiment: Antimalarial activity against Plasmodium falciparum infected in po dosed SCID mouse assessed as reduction in parasitaemia by Peters test; format: functional
[5] = Half life in Sprague-Dawley rat at 5 mg/kg, po; format: ADME, organism-based; set-up: dose 5 mg/kg, route oral; settings: in vivo

SMILES: O=C(O)CCc1cccc2c1B(O)OC2
ED90 [1]: 0.6 mg/kg

SMILES: NC1=Nc2ccc(Cl)cc2C1(O)c1ccccc1 (stereo not given)
IC50 [2]: 507 nM | IC50 [3]: 216 nM

half-life [5]: 8.7 h
SMILES: COc1ccc(-c2cc(-c3ccc(S(C)(=O)=O)cc3)cnc2N)cn1
ED90 [4]: 3.6 mg/kg
